Like-named read-outs stand apart in the source and are kept apart here.
Columns and labels:
[1] = assay type: physicochemical; set-up: key to Fibril / Fibril Formation / TEM 2cat / Fibril: 1 = fibrils present; 0 non-fibrillar structures; conditions: for Fibril / Fibril Formation: 1 mg/mL, uranyl acetate stain, qualitative
[2] = Turbidity, derived count rate of scattered light; assay type: physicochemical; conditions: for Count Rate: derived count rate of scattered light (turbidity); for Log10 Count Rate: turbidity, derived count rate of scattered light, data of Figure 2D
[3] = β-sheet content by ATR-FT-IR; assay type: physicochemical; conditions: Fig. S7 panel A; β-sheet content by ATR-FT-IR
How it was run: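 Conversion rate: fluorescamine fluorescence (ex 365/em 470 nm, 20 min RT) of 3 kDa filtrate versus unfiltered PNF, CR = 100 − 100 × filtrate/original intensity, triplicates. β-sheet content came from ATR FT-IR of lyophilized 1 mg/mL PNF powder, 64 scans.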

[4] = Zeta-potential measurement; assay type: physicochemical; conditions: for Zeta-Pot.: zeta potential of peptide assemblies
How it was run: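 Surface charge of aggregated peptides: 1 mg/mL solutions in PBS (pH 7.4) incubated 1 d at RT, diluted into 1 mM KCl just before reading. Electrophoretic mobility converted to zeta potential by the Smoluchowski formula; triplicate measurements from two separate experiments averaged.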

[5] = Turbidity, derived count rate of scattered light; assay type: physicochemical; conditions: for Count Rate / kcps: derived count rate of scattered light at 633 nm, 173°, from zeta-potential measurement, 0.1 mg/mL in 1 mM KCl after 1 d at 1 mg/mL in PBS, turbidity / microscopic aggregation, mean of triplicate
How it was run: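 One-day room-temperature aggregation at 1 mg/mL in PBS (pH 7.4) preceded measurement; samples then went into 1 mM KCl. Triplicates per sample, two independent experiments averaged.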

[6] = Fig S10 panel D, fibril category by TEM
[7] = TEM, 1 = fibrils present, 0 = non-fibrillar
[8] = TEM, 1 = fibrils present, 0 = non-fibrillar structures
[9] = category: fibrils present or non-fibrillar
[10] = zeta-potential of peptide, source data of Figure 2C
[11] = zeta-potential of the peptide assemblies, mean, Figure 3A source data
[12] = Log10 of derived count rate of scattered light (turbidity)
[13] = log10 of derived count rate of scattered light (turbidity)
[14] = turbidity, Log10 of derived count rate of scattered light, Figure 3A source data

Sequence | TEM 2cat [1, 6] | Fibril / Fibril Formation ([1]; TEM) | Fibril [1, 7] | Fibril [1, 8] | TEM 2cat [1, 9] | Count Rate [2] | Log10 Count Rate [2] | b -sheet / % [3] | Zeta-Pot. [4] | Zeta-Potential / mV [4, 10] | Zeta-Potential / mV [4, 11] | Log10 Count Rate [5, 12] | Count Rate / kcps [5] | Log10 Count Rate [5, 13] | Log10 Count Rate [5, 14] | Fibril ([1]; Fig S10 panel E) | Log10 Count Rate ([5]; logarithm of count rate in kcps)
RGDCKIKIQINM | 1 | 1 | 1 | 1 | 1 | 1623 | 3.2102 | 43% | 11.3 | 12.35 mV | 11.3 mV | 3.2102 | 1623 kcps | 3.2102 | 3.2102 | – | –
RGDKIKIQIC | 1 | 1 | 1 | 1 | 1 | 7509 | 3.876 | 40.73% | 16.5 | 17.27 mV | 16.5 mV | 3.876 | 7509 kcps | 3.876 | 3.876 | 1 | –
RGDKIKIQINM | 1 | 1 | 1 | 1 | 1 | 57.2 | 1.7574 | 45.52% | 16.43 | 16.22 mV | 16.43 mV | 1.7574 | 57 kcps | 1.7574 | 1.7574 | 1 | –
RGDKIKIQINMWQ | 1 | 1 | 1 | 1 | 1 | 1554 | 3.1914 | 49.07% | 6.59 | 11.21 mV | 6.59 mV | 3.1914 | 1554 kcps | 3.1914 | 3.1914 | 1 | –
RGDSGGGGGGKIKIQIC | 1 | 1 | 1 | 1 | 1 | 10416.16667 | 4.018 | 40.62% | 16.7 | 16.7 mV | 16.7 mV | 4.018 | 10416 kcps | 4.018 | 4.018 | 1 | 4.018
RGDSKIKIQIC | 1 | 1 | 1 | 1 | 1 | 2699 | 3.431 | 38.56% | 15.1 | 15.65 mV | 15.1 mV | 3.431 | 2699 kcps | 3.431 | 3.431 | 1 | –

Reference: paper PMC10447463, “Data-mining unveils structure–property–activity correlation of viral infectivity enhancing self-assembling peptides” (Nature Communications, 2023)
